From patent US20240109917A1 (ACTELION PHARMACEUTICALS LTD, priority 2020, published 2024)

Assays:
[1] = target: His6-TEV-PDGFRβ (557-1016) (Homo sapiens (Human), UniProt P09619); test: PDGFRβ HTRF Assay; format: biochemical; settings: read-out: PDGFR HTRF IC50
Method in brief: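 Human PDGFRβ (557-1016) pre-incubated with compound for 30 min at RT in pH 7.5 HEPES/MgCl2/EGTA/Brij-35/DTT buffer. Reaction started with ATP and TK-biotin peptide, run 3 h at RT, then quenched with EDTA-containing Eu-cryptate antibody/streptavidin-XL665. HTRF 665/620 nm ratio read after 60 min; percent inhibition relative to DMSO and 10 μM imatinib controls.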

[2] = target: Tb-labeled inactive PDGFRβ (Homo sapiens (Human), UniProt P09619); test: PDGFRβ LanthaScreen Assay; format: binding; settings: read-out: PDGFR Lantha IC50
PDGFRβ = PDGFRβ (Rattus norvegicus (Rat), UniProt Q05030); test: PDGFRβ Cellular Assay (PDGFRb P-Y751 HTRF in A10 cells stimulated with PDGF-BB); format: cell-based; settings: read-out: PDGFR Cellular IC50
Method in brief: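 Rat A10 cells, plated overnight, were treated with compound for 3 hours, then stimulated with PDGF-BB (working stock 100 ng/mL in 10% FBS medium). After lysis, PDGFRβ P-Y751 was detected by HTRF.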

Chain of Tb-labeled inactive PDGFRβ (P09619 33-1106): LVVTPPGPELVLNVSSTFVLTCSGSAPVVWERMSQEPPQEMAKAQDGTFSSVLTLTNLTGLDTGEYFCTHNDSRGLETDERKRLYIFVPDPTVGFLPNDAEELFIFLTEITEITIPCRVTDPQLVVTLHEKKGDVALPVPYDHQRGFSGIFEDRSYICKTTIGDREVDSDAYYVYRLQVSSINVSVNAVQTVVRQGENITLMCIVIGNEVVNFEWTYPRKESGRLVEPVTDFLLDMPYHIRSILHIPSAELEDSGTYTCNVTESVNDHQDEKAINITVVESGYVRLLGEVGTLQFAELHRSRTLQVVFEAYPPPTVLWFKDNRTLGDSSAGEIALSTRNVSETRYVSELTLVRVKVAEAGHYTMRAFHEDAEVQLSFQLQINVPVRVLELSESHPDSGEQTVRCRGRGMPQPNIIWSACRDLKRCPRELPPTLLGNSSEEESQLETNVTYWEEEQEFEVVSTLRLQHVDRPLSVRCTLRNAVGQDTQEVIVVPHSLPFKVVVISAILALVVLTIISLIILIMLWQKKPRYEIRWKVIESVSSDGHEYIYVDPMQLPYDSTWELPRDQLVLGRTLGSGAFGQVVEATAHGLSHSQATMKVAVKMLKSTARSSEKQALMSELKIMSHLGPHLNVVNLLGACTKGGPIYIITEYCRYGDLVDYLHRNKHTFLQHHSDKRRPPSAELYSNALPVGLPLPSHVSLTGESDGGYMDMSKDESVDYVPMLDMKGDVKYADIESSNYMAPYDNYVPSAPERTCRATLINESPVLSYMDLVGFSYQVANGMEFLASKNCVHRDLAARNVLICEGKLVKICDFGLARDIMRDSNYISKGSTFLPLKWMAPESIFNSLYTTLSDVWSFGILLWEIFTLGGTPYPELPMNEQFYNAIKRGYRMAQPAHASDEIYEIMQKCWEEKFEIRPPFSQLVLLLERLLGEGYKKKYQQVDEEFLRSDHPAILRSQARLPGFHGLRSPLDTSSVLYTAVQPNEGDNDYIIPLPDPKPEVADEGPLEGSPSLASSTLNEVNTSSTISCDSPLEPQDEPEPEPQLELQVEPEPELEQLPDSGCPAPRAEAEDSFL
Chain of His6-TEV-PDGFRβ (557-1016) (P09619 557-1016): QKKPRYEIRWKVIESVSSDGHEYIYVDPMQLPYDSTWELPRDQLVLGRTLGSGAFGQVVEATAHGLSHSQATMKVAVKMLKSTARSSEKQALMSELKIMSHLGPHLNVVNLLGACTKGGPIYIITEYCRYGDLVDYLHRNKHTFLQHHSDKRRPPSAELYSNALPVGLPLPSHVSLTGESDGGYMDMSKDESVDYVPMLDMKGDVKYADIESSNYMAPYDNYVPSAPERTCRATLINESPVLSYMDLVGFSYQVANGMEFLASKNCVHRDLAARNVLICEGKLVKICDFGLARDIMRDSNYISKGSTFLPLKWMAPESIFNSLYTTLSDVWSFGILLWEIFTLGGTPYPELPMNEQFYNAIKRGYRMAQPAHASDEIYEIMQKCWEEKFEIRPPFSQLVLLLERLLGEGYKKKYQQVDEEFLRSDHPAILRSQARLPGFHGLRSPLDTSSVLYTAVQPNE
Chain of PDGFRβ (Q05030 32-1097): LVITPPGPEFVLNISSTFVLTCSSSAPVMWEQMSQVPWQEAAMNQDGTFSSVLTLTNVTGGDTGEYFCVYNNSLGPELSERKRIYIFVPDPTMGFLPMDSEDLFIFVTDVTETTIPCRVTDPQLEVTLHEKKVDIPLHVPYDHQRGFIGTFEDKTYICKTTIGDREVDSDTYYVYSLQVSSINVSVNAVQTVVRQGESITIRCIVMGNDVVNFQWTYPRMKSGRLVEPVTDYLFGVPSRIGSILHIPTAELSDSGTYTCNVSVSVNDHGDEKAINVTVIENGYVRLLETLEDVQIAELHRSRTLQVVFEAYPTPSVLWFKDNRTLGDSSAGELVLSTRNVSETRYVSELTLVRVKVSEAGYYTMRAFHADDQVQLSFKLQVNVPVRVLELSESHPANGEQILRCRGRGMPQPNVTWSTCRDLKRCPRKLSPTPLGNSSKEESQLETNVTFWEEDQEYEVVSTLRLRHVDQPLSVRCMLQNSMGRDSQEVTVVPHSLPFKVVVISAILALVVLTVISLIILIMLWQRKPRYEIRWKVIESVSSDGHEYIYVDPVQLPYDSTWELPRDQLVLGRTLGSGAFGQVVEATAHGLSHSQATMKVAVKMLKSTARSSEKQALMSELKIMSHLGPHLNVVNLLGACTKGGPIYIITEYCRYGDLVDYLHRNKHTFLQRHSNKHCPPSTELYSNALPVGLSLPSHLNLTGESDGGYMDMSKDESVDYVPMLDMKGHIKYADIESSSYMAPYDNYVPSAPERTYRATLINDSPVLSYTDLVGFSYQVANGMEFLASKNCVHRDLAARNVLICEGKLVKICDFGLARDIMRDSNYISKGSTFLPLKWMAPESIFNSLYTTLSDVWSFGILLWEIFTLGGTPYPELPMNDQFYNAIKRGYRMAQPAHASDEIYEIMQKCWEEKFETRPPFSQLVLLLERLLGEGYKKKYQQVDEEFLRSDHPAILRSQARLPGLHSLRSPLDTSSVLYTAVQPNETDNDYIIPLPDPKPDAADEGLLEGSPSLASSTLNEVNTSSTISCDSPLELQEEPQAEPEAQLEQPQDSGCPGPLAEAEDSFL

Row | SMILES | IC50 [1] [nM] | IC50 [2] [nM] | IC50 (PDGFRβ) [nM]
1 | Cc1ncc(NC(=O)CCN2CC3CCC2CC3)cc1NC(=O)c1cnn2cc(-c3cnn(C)c3)sc12 [Example 43, N-(5-(3-(2-azabicyclo[2.2.2]octan-2-yl)propanamido)-2-methylpyridin-3-yl)-2-(1-methyl-1H-pyrazol-4-yl)pyrazolo[5,1-b]thiazole-7-carboxamide] | 0.23 | 3.9 | 7.2
2 | COCCn1cc(-c2cn3ncc(C(=O)Nc4cc(NC(=O)C(C)(C)CN5CCCC5(C)C)cnc4C)c3s2)cn1 [Example 488, N-(5-(3-(2,2-dimethylpyrrolidin-1-yl)-2,2-dimethyl-propanamido)-2-methylpyridin-3-yl)-2-(1-(2-methoxyethyl)-1H-pyrazol-4-yl)pyrazolo[5,1-b]thiazole-7-carboxamide] | 92.3 | 1280 | 375
3 | Cc1ncc(C(=O)NCCN2CCCC23CC3)cc1NC(=O)c1cnn2cc(-c3cnn(C)c3)sc12 [Example 2, N-(5-((2-(4-azaspiro[2.4]heptan-4-yl)ethyl)carbamoyl)-2-methylpyridin-3-yl)-2-(1-methyl-1H-pyrazol-4-yl)pyrazolo[5,1-b]thiazole-7-carboxamide] | 0.7 | 11.5 | 30.2
4 | Cc1ncc(NC(=O)CN2CCc3scnc3C2)cc1NC(=O)c1cnn2cc(-c3cnn(C)c3)sc12 [Example 61, N-(5-(2-(6,7-dihydrothiazolo[4,5-c]pyridin-5 (4H)-yl)acetamido)-2-methylpyridin-3-yl)-2-(1-methyl-1H-pyrazol-4-yl)pyrazolo[5,1-b]thiazole-7-carboxamide] | 0.8 | 12.3 | 43.6
5 | Cc1ncc(NC(=O)CN2CCC3(CCO3)CC2)cc1NC(=O)c1cnn2cc(-c3cnn(C)c3)sc12 [Example 81, N-(5-(2-(1-oxa-7-azaspiro[3.5]nonan-7-yl)acetamido)-2-methylpyridin-3-yl)-2-(1-methyl-1H-pyrazol-4-yl)pyrazolo[5,1-b]thiazole-7-carboxamide] | 2.8 | 76.8 | 79.8
6 | Cc1ncc(NC(=O)CN2CCCCC23CC3)cc1NC(=O)c1cnn2cc(-c3cnn(CCO)c3)sc12 [Example 86, N-(5-(2-(4-azaspiro[2.5]octan-4-yl)acetamido)-2-methylpyridin-3-yl)-2-(1-(2-hydroxyethyl)-1H-pyrazol-4-yl)pyrazolo[5,1-b]thiazole-7-carboxamide] | 1.3 | 7.3 | 18.4
7 | Cc1ncc(NC(=O)CN2Cc3ccncc3C2)cc1NC(=O)c1cnn2cc(-c3cnn(C)c3)sc12 [Example 77, N-(5-(2-(1H-pyrrolo[3,4-c]pyridin-2 (3H)-yl)acetamido)-2-methylpyridin-3-yl)-2-(1-methyl-1H-pyrazol-4-yl)pyrazolo[5,1-b]thiazole-7-carboxamide] | 1.8 | 15.9 | 78.9
8 | Cc1ncc(NC(=O)CN2CCCOCC2)cc1NC(=O)c1cnn2cc(-c3cnn(C)c3)sc12 [Example 80, N-(5-(2-(1,4-oxazepan-4-yl)acetamido)-2-methylpyridin-3-yl)-2-(1-methyl-1H-pyrazol-4-yl)pyrazolo[5,1-b]thiazole-7-carboxamide] | 1.4 | 19.3 | 37.8
9 | Cc1ncc(NC(=O)CN2CCN(C)C(=O)C2)cc1NC(=O)c1cnn2cc(-c3cnn(C)c3)sc12 [Example 72, 2-(1-methyl-1H-pyrazol-4-yl)-N-(2-methyl-5-(2-(4-methyl-3-oxopiperazin-1-yl)acetamido)pyridin-3-yl)pyrazolo[5,1-b]thiazole-7-carboxamide] | 5.7 | 112 | > 3000
10 | Cc1ncc(NC(=O)CNC2(C)CCC2)cc1NC(=O)c1cnn2cc(-c3cnn4c3OCCC4)sc12 [Example 495, 2-(6,7-dihydro-5H-pyrazolo[5,1-b][1,3]oxazin-3-yl)-N-(2-methyl-5-(2-((1-methylcyclobutyl)amino)acetamido)pyridin-3-yl)pyrazolo[5,1-b]thiazole-7-carboxamide] | 0.3 | 2.5 | 3.8
11 | COCCn1cc(-c2cn3ncc(C(=O)Nc4cc(NC(=O)CCN5CC(C)(C)C5)cnc4C)c3s2)cn1 [Example 93, N-(5-(3-(3,3-dimethylazetidin-1-yl)propanamido)-2-methylpyridin-3-yl)-2-(1-(2-methoxyethyl)-1H-pyrazol-4-yl)pyrazolo[5,1-b]thiazole-7-carboxamide] | 0.9 | 29.1 | 66
12 | Cc1ncc(NC(=O)CN2CCc3cnccc3C2)cc1NC(=O)c1cnn2cc(-c3cnn(C)c3)sc12 [Example 62, N-(5-(2-(3,4-dihydro-2,6-naphthyridin-2 (1H)-yl)acetamido)-2-methylpyridin-3-yl)-2-(1-methyl-1H-pyrazol-4-yl)pyrazolo[5,1-b]thiazole-7-carboxamide] | 1.4 | 17.6 | 111
13 | Cc1ncc(NC(=O)CN2CCC3(CC2)COC3)cc1NC(=O)c1cnn2cc(-c3cnn(C)c3)sc12 [Example 46, N-(5-(2-(2-oxa-7-azaspiro[3.5]nonan-7-yl)acetamido)-2-methylpyridin-3-yl)-2-(1-methyl-1H-pyrazol-4-yl)pyrazolo[5,1-b]thiazole-7-carboxamide] | 3 | 89 | 85.5
14 | Cc1ncc(NC(=O)CN2Cc3cccnc3C2)cc1NC(=O)c1cnn2cc(-c3cnn(C)c3)sc12 [Example 48, N-(5-(2-(5H-pyrrolo[3,4-b]pyridin-6 (7H)-yl)acetamido)-2-methylpyridin-3-yl)-2-(1-methyl-1H-pyrazol-4-yl)pyrazolo[5,1-b]thiazole-7-carboxamide] | 1.4 | 16.8 | 49.3
15 | Cc1ncc(NC(=O)CN2CCc3ncsc3C2)cc1NC(=O)c1cnn2cc(-c3cnn(C)c3)sc12 [Example 58, N-(5-(2-(6,7-dihydrothiazolo[5,4-c]pyridin-5 (4H)-yl)acetamido)-2-methylpyridin-3-yl)-2-(1-methyl-1H-pyrazol-4-yl)pyrazolo[5,1-b]thiazole-7-carboxamide] | 1 | 12.5 | 52.9
16 | COCCn1cc(-c2cn3ncc(C(=O)Nc4cc(NC(=O)C[C@H]5CCCN5C(C)C)cnc4C)c3s2)cn1 [Example 485, (R)—N-(5-(2-(1-isopropylpyrrolidin-2-yl)acetamido)-2-methylpyridin-3-yl)-2-(1-(2-methoxyethyl)-1H-pyrazol-4-yl)pyrazolo[5,1-b]thiazole-7-carboxamide] | 0.8 | 16.3 | 34.4
17 | Cc1ncc(NC(=O)CCN2CCCC2(C)C)cc1NC(=O)c1cnn2cc(-c3cnn(CCO)c3)sc12 [Example 88, N-(5-(3-(2,2-dimethylpyrrolidin-1-yl)propanamido)-2-methylpyridin-3-yl)-2-(1-(2-hydroxyethyl)-1H-pyrazol-4-yl)pyrazolo[5,1-b]thiazole-7-carboxamide] | 0.4 | 4.2 | 141
18 | Cc1ncc(NC(=O)CN2C[C@H](C)O[C@@H](C)C2)cc1NC(=O)c1cnn2cc(-c3cnn(C)c3)sc12 [Example 52, N-(5-(2-((2S,6S)-2,6-dimethylmorpholino)acetamido)-2-methylpyridin-3-yl)-2-(1-methyl-1H-pyrazol-4-yl)pyrazolo[5,1-b]thiazole-7-carboxamide] | 0.3 | 0.8 | 0.9
19 | Cc1ncc(NC(=O)CN2CCOC(C)(C)C2)cc1NC(=O)c1cnn2cc(-c3cnn(C)c3)sc12 [Example 67, N-(5-(2-(2,2-dimethylmorpholino)acetamido)-2-methylpyridin-3-yl)-2-(1-methyl-1H-pyrazol-4-yl)pyrazolo[5,1-b]thiazole-7-carboxamide] | 1 | 5.7 | 8.3
20 | Cc1ncc(NC(=O)CN2CCc3ncccc3C2)cc1NC(=O)c1cnn2cc(-c3cnn(C)c3)sc12 [Example 63, N-(5-(2-(7,8-dihydro-1,6-naphthyridin-6 (5H)-yl)acetamido)-2-methylpyridin-3-yl)-2-(1-methyl-1H-pyrazol-4-yl)pyrazolo[5,1-b]thiazole-7-carboxamide] | 2.9 | 42.9 | 223
21 | COCCn1cc(-c2cn3ncc(C(=O)Nc4cc(NC(=O)CCN5C[C@H]6CC[C@@H]5C6)cnc4C)c3s2)cn1 [Example 94, N-(5-(3-((1R,4S)-2-azabicyclo[2.2.1]heptan-2-yl)propanamido)-2-methylpyridin-3-yl)-2-(1-(2-methoxyethyl)-1H-pyrazol-4-yl)pyrazolo[5,1-b]thiazole-7-carboxamide] | 0.5 | 14.2 | 143
22 | Cc1ncc(NC(=O)CN2Cc3ncsc3C2)cc1NC(=O)c1cnn2cc(-c3cnn(C)c3)sc12 [Example 76, N-(5-(2-(4H-pyrrolo[3,4-d]thiazol-5 (6H)-yl)acetamido)-2-methylpyridin-3-yl)-2-(1-methyl-1H-pyrazol-4-yl)pyrazolo[5,1-b]thiazole-7-carboxamide] | 0.9 | 8.9 | 36.9
23 | Cc1ncc(NC(=O)CN2CCOCC23CCC3)cc1NC(=O)c1cnn2cc(-c3cnn(C)c3)sc12 [Example 78, N-(5-(2-(8-oxa-5-azaspiro[3.5]nonan-5-yl)acetamido)-2-methylpyridin-3-yl)-2-(1-methyl-1H-pyrazol-4-yl)pyrazolo[5,1-b]thiazole-7-carboxamide] | 0.9 | 5.7 | 12.1
